Patent publication US20240374667A1, “Prunella vulgaris extract and use thereof” (Clariant International Ltd, priority 2021, published 2024)

Tests used:
Format in all cases: cell-based
[1] = system: Human sensory neurons derived from hiPS cells; test: CGRP release by sensory neurons after cortisol or histamine challenge (ELISA); conditions: for CGRP release by sensory neurons: stress molecule alone at 10 μM, 30 minutes of stimulation, vs control
Experimental: Human sensory neurons are derived from hiPS cells (human induced Pluripotent Stem cells). hiPS cells are obtained by transfecting human fibroblasts cells. Cells were plated in 96 wells plates coated by a thin layer of Matrigel® (Corning; ref: 354277; batch: 9238002) in a differentiation medium (M1). Cells were incubated at 37° C. and 5% CO2 for 6 days and culture medium was changed every 2 days. After 9 days of differentiation, medium M1 was replaced by a maturation medium for human sensory neurons (M2). Cells were incubated at 37° C. and 5% CO2 for 6 days and culture medium was changed every 2 days. […] H-2700; batch: 1069755) was added. […] Culture was incubated for 24 hours at 37° C. and 5% of CO2. After 2 or 24 hours of incubation, the culture plates were stimulated by cortisol (Sigma Aldrich; ref: H0888; batch: SLB[…]) or histamine, each at 10 μM (Tocris; ref: 3545; batch: 1A/18942). After 30 minutes of stimulation, supernatants were removed and stored at -80° C. The amount of CGRP (antibodies-online; ref: abx257902; batch: E2001551F) released in supernatant after 30 minutes of stimulation were dosed by ELISA and compared to non-treated control. All values were expressed as mean +/-s.e.mean.

[2] = system: Human hair follicles; test: Growth of isolated human hair follicles under cortisol (ex vivo culture, 5 days); conditions: cortisol 100 μM alone, day 1 to day 5
Experimental: Human hair follicles were removed from a fresh scalp/face skin biopsy of a person. After the depilation, isolated follicles were selected by microscopic observation to select only ones in anagen phase. They were randomized and placed in supplemented William's E medium (Penicillin/Streptomycin, L-glutamine (2 mM), hydrocortisone (0.027 μM), sodium selenite (10 ng/ml), transferrin (10 μg/ml) and insulin (10 μg/ml) and indicated treatment (control, cortisol at 100 μM, PVE at 50 or 150 ppm in presence or not of cortisol). Follicles were cultured at 37° C. under 5% CO2 and a relative humidity >95%. Medium was changed at day 1 and 3. The growth of isolated follicles was monitored for 5 days by daily photography using a stereomicroscope device (Carl Zeiss, Microscopy, France). The length of each follicle was measured using ImageJ software.

[3] = system: Human hair follicles; test: Hair follicle structure, HES staining; conditions: cortisol 100 μM alone, 5 days
Experimental: (§1) Human hair follicles were removed from a fresh scalp/face skin biopsy of a person. After the depilation, isolated follicles were selected by microscopic observation to select only ones in anagen phase. They were randomized and placed in supplemented William's E medium (Penicillin/Streptomycin, L-glutamine (2 mM), hydrocortisone (0.027 μM), sodium selenite (10 ng/ml), transferrin (10 μg/ml) and insulin (10 μg/ml) and indicated treatment (control, cortisol at 100 μM, PVE at 50 or 150 ppm in presence or not of cortisol). After overnight fixation in paraformaldehyde solution (MM France, Brignais, France), samples were dehydrated and impregnated in paraffin using a dehydration automat (STP120 ThermoScientific™ Waltham, MA, USA). Then, sections of […] were mounted on Superfrost® Gold slides before proceeding to Hematoxylin-eosin-saffron (HES) staining. Hematoxylin-eosin-saffron (HES) is a trichromatic coloration using nuclear, cytoplasmic and matrix colorants, usually used for the visualization of tissues.

[4] = system: Human hair follicles; test: Hair follicle cell proliferation (Ki-67) and apoptosis (TUNEL) under cortisol; conditions: cortisol alone, five days, vs control
Experimental: Human hair follicles were removed from a fresh scalp/face skin biopsy of a person. After the depilation, isolated follicles were selected by microscopic observation to select only ones in anagen phase. They were randomized and placed in supplemented William's E medium (Penicillin/Streptomycin, L-glutamine (2 mM), hydrocortisone (0.027 μM), sodium selenite (10 ng/ml), transferrin (10 μg/ml) and insulin (10 μg/ml) and indicated treatment (control, cortisol at 100 μM, PVE at 50 or 150 ppm in presence or not of cortisol). To perform immunostaining, slide deparaffinization was manually conducted using successive baths of solvent. Heat-induced epitope retrieval was performed using the Dako Envision Flex solution (Agilent, Santa Clara, US). Ki-67 (dilution 1/500).Cell proliferation was studied by Ki-67 immunostainings realized on paraffin sections (mouse monoclonal anti-Ki-67, Dako™ M7240, Santa Clara, US), The apoptosis was studied by using click-iT® Plus Alexa 488 TUNEL assay (ThermoScientific™, C10617, Waltham, MA, USA) following supplier instructions. After TUNEL assay and Ki67 antibody incubation, slices were incubated one hour at room temperature with an Alexa 568 coupled secondary antibody (A11004, Thermo Fischer Scientific™, Waltham, MA, USA). Nuclei counterstain was done using Hoechst (Invitrogen, ref H3570) at 1/5000 for 5 minutes at RT. Slides were mounted in aqueous medium.

[5] = system: Human hair follicles; test: Hair follicle pigmentation, Masson's Fontana staining; conditions: cortisol alone, 5 days
Experimental: as §1, with “USA). The” for “USA).”, “to Masson's Fontana” for “to Hematoxylin-eosin-saffron (HES)”, “staining. This staining is used to visualize melanin granules. Melanin” for “staining. Hematoxylin-eosin-saffron (HES)”, “a non-lipid pigment, brown to black, present physiologically in hair, eyes,” for “a trichromatic coloration using nuclear, cytoplasmic”, “and skin.” for “and matrix colorants, usually used for the visualization of tissues.”

[6] = system: hair follicles dermal papilla cells (HFDPCs); test: HFDPC proliferation under cortisone (WST test); conditions: cortisone 200 μM alone, 60 h
Experimental: (§2) 2.3. Evaluation of the ability of PVE to counteract the glucocorticoids-induced decrease proliferation of hair follicles cells and to restore the VEGF secretion HFDP cells were maintained in Follicle Dermal Papilla Cell Growth Medium (C-26501, PromoCell, Heidelberg, Germany) at 37° C., under 5%, CO2. Cells at passage 4 were plated in 24 well plate at 2×10^4 cells/well. HFDPCs at 60% confluence was pretreated with 5, 10 or 20 ppm of PVE for 2 h, and subsequently treated with 200 μM cortisone. After incubation for 60 h, cell culture supernatant was recovered, and secreted VEGF was measured using ELISA kit. For the cell proliferation assay, the WST test was used (EZ-Cytox, DogenBio, Korea). Absorbance was measured at 450 nm wavelength using microplate spectrophotometry.

[7] = system: hair follicles dermal papilla cells (HFDPCs); test: VEGF secretion by HFDPC under cortisone (ELISA); conditions: cortisone 200 μM alone, 60 h
Experimental: as §2

[8] = system: Human sensory neurons derived from hiPS cells; test: Oxytocin release by sensory neurons after cortisol or histamine challenge (ELISA); conditions: 2 h pre-incubation
Experimental: Human sensory neurons are derived from hiPS cells (human induced Pluripotent Stem cells). hiPS cells are obtained by transfecting human fibroblasts cells. Cells were plated in 96 wells plates coated by a thin layer of Matrigel® (Corning; ref: 354277; batch: 9238002) in a differentiation medium (M1). Cells were incubated at 37° C. and 5% CO2 for 6 days and culture medium was changed every 2 days.
After 9 days of differentiation, medium M1 was replaced by a maturation medium for human sensory neurons (M2). Cells were incubated at 37° C. and 5% CO2 for 6 days and culture medium was changed every 2 days. On day 18 of culture (24 hours of pre-incubation) or day 19 of culture (2 hours of pre-incubation,) the medium was removed, and fresh medium with PVE or reference compound β-endorphin (Bachem; ref: H-2700; batch: 1069755) was added. The following conditions were done: control medium, control medium containing PVE at 50, 100 or 150 ppm, control medium containing beta-endorphin at 10 μM. Culture was incubated for 24 hours at 37° C. and 5% of CO2. After 2 or 24 hours of incubation, the culture plates were stimulated by cortisol (Sigma Aldrich; ref: H0888; batch: SLBN5690V) or histamine, each at 10 μM (Tocris; ref: 3545; batch: 1A/18942). After 30 minutes of stimulation, supernatants were removed and stored at −80° C. […]

## C[C@]12CCC(=O)C=C1CC[C@@H]1[C@@H]2[C@@H](O)C[C@@]2(C)[C@H]1CC[C@]2(O)C(=O)CO [cortisol]
[1]
  CGRP release by sensory neurons: strong increase of CGRP release
[2]
  hair follicle growth (length): strongly reduced
[3]
  hair follicle structure (dermal sheath, hair matrix): dramatically altered
[4]
  apoptosis of hair follicle cells (TUNEL): induces apoptosis in cells
  hair follicle cell proliferation (Ki-67): reduced cell proliferation
[5]
  hair follicle pigmentation (melanin granules): almost all the melanin granules disappeared

## C[C@]12CCC(=O)C=C1CC[C@@H]1[C@@H]2C(=O)C[C@@]2(C)[C@H]1CC[C@]2(O)C(=O)CO [cortisone]
[6]
  HFDPCs proliferation: inhibits the HFDPCs proliferation
[7]
  VEGF secretion by HFDPC: reduced VEGF production

## NCCc1c[nH]cn1 [histamine]
[1]
  CGRP release by sensory neurons: strong increase of CGRP release

## β-endorphin (YGGFMTSEKSQTPLVTLFKNAIIKNAYKKGE; Beta-endorphin; UniProt P01189 237-267, looked up)
[1]; 2 h or 24 h pre-incubation, PVE 50, 100 or 150 ppm, beta-endorphin 10 μM, then cortisol 10 μM, 30 minutes
  CGRP release by sensory neurons (sensory neuron excitation): reduce the neuronal excitation at level similar to the control condition
[8]; then cortisol 10 μM challenge
  oxytocin release by sensory neurons: no effect on the oxytocin release
[8]; then histamine 10 μM challenge
  oxytocin release by sensory neurons: no effect on the oxytocin release
